Laboratory results reported in patent US20130197073A1, “HYPOCHOLESTEROLEMIC, ANTI-INFLAMMATORY AND ANTIEPILEPTIC NEUROPROTECTIVE COMPOUND” (NEURON BIOPHARMA, S.A., priority 2010, published 2013).

Tests used:
[1] = test system: promoter of a gene that could be modulated by oxidative stress bound to the firefly luciferase reporter gene; assay: Oxidative stress of the brain induced by kainate in luciferase reporter mice, in vivo bioluminescence; settings: 50 mg/kg i.p. at 24 and 0.5 hours before KA 25 mg/kg and daily; 1 to 4 dpi
Protocol: All the animals included during the experimental process were 12-week old males from the FVB/N strain who were carriers of a gene construct with the promoter of a gene that could be modulated by oxidative stress bound to the firefly luciferase reporter gene. The experiments were carried out strictly complying with the standard entitled Guidance on the Operation of Animals (Scientific Procedures, Act. 1986). The animals were subjected to their respective quarantine period and were treated with maximum precaution to minimize possible contaminations during inoculations and handling.
The animals were intraperitoneally inoculated with 25 mg/kg of kainate (KA) dissolved in PBS. Seven mice were pretreated at 24 and 0.5 hours before inoculation with KA and subsequently on a daily basis up to 7 days post-inoculation by means of intraperitoneal injection with 0.25% methyl cellulose in PBS as a vehicle (vehicle+KA administration regimen), and another 7 mice were pretreated at 24 and 0.5 hours before inoculation with KA and subsequently on a daily basis up to 7 days post-inoculation by means of intraperitoneal injection with compound NST0060 at a dose of 50 mg/kg (NST0060+KA administration regimen). […] Oxidative stress in the brain was monitored by means of the in vivo bioluminescence technique with the IVIS Lumina system (Caliper LS). […]

TNFα = assay: LPS model of systemic inflammation in mice, plasma TNFα, NST0060 compared with simvastatin; type: in vivo; settings: two i.p. doses of 50 mg/kg (lactone forms); 2 hours after LPS 8 mg/kg i.p.
From the text: The investigators considered necessary to evaluate alternative activities with respect to hypocholesterolemic and neuroprotective activities given the characteristics and properties of the molecule. […] To evaluate this activity, a model of systemic shock in mice induced by lipopolysaccharide (LPS), a component of the gram negative bacteria structure that induces a cytokine-mediated, mainly TNFα-mediated, inflammatory response was used.
All the animals included during the experimental process were 12-week old male C57BL6 mice. The experiments were carried out strictly complying with the standard entitled Guidance on the Operation of Animals (Scientific Procedures, Act. 1986). The animals were subjected to their respective quarantine period and were treated with maximum precaution to minimize possible contaminations during treatments and handling.
In both cases 0.5% methyl cellulose in physiological saline, which was administered to mice in the control group with the same administration regimen, was used as a vehicle. Peripheral systemic inflammation was induced one hour after the last treatment by means of a single i.p. injection of LPS at 8 mg/kg. Two hours later blood was taken and plasma was obtained, which was used to evaluate the anti-inflammatory effect by analyzing plasma concentrations of TNFα by means of ELISA.

[2] = test system: human neuroblastoma SK-N-MC cells; assay: Protection against neuronal death induced by okadaic acid (inhibition of protein phosphatase-1), WST-1; type: cell-based; settings: NST0060 at 10 μM; 20 nM OA, 22 hours; significant with 4 and 10 μM
Protocol: The assay was performed on human neuroblastoma SK-N-MC cells in culture, maintained as described in section 2.1.
The inhibition caused by compound NST0060 with respect to cell death caused by treatment with okadaic acid (OA) which inhibits the activity of protein phosphatase-1 (PP1) was analyzed. OA is one of the most widely used drugs for studying the phosphorylation mechanism of the tau protein, involved in the pathogenesis and progression of AD. Inhibition of PP1 causes cytoskeleton alterations and mitochondrial damage. These cells, not exceeding 15 passages, were seeded on 96-well plates treated for adherent cells with a cell concentration of 5×10^4 cells/well; 3 wells of the plate were seeded for each assay condition.
After 24 hours of cell incubation (at 37° C. and 5% CO2), the cell treatments were performed with 100 μl of total volume for the following conditions: • Control: culture medium (medium) • Okadaic acid (OA): medium plus 20 nM OA, causing death of 50% of the cells. • OA plus NST0060: medium plus OA (20 nM) plus NST0060 at 1, 4, 10, 40 or 100 μM.
The cells were incubated (at 37° C. and 5% CO2) with these treatments for 22 hours, after which time WST-1 reagent (Roche) was added. The WST-1 test is based on the measurement of metabolic activity (method described in section 2.1).

[3] = test system: human neuroblastoma SK-N-MC cells; assay: Protection against neuronal death induced by oxidative stress (xanthine/xanthine oxidase), WST-1; type: cell-based; settings: NST0060 at 10 μM; 10 μM xanthine/60 mU/mL xanthine oxidase, 22 hours; protection significant from 1 to 40 μM
Protocol: The assay was performed on human neuroblastoma SK-N-MC cells in culture from the American Type Culture Collection (ATCC), in all cases strict rules of sterility were followed and the manipulation was performed in class II biological safety cabinets following European standard EN 12469. The cells were maintained in the following culture medium: Minimum Essential Medium Eagle (MEM) supplemented with 1 mM sodium pyruvate, 2 mM L-glutamine, 0.1 mM non-essential amino acids, 0.05 mg/ml gentamicin and 10% fetal bovine serum.
The inhibition caused by compound NST0060 with respect to cell death caused by treatment with xanthine/xanthine oxidase which generates oxidative damage (produces free radicals such as hydrogen peroxide, superoxide anion, hydroxyl radical), which triggers cell death, was analyzed. These cells, not exceeding 15 passages, were seeded on 96-well plates treated for adherent cells with a cell concentration of 5×10^4 cells/well; 3 wells of the plate were seeded for each assay condition. […]
The cells were incubated (at 37° C. and 5% CO2) with these treatments for 22 hours, after which time WST-1 reagent (Roche) was added. […] The formazan which is formed can be detected colorimetrically since it has an absorbance of 440 nm. The reading was taken in a plate reader at 440 nm 2 hours after adding the reagent.

In the case of `CCCC(CCC)C(=O)O[C@H]1C[C@@H](C)C=C2C=C[C@H](C)[C@H](CC[C@@H]3C[C@@H](O)CC(=O)O3)[C@H]21` [NST0060, 2-propylpentanoic acid (1S,3R,7S,8S,8aR)-1,2,3,7,8,8a-hexahydro-3,7-dimethyl-8-[2-[(2R,4R)-tetrahydro-4-hydroxy-6-oxo-2H-pyran-2-yl]ethyl]-1-naphthalenyl ester], the “expression of gene associated with oxidative stress in the brain (photon emission)” value [1] is reported as “did not show a significant increase in the expression of this gene associated with oxidative stress”, the “TNFα plasma levels with respect to the control group” value (TNFα) is reported as “large decrease in said levels that is significant with respect to the control group” and the “TNFα plasma levels with respect to the simvastatin group” value (TNFα) is reported as “statistically significant TNFα plasma level reductions with respect to the group of simvastatin”. The “protection against cell death caused by OA” value [2] was 83% and the “maximum protection against cell death caused by XXO” value [3] was 80%.
